Experimental data taken from patent US12648925B2, “Composition for preventing or treating cancer, containing manassantin A and immune checkpoint inhibitor or epithelial growth factor receptor inhibitor” (KYUNGPOOK NATIONAL UNIVERSITY INDUSTRY-ACADEMIC COOPERATION …, priority 2019, dated 2026).

Tested on: Lewis lung carcinoma (LLC)
Assay: Hypoxic state (hypoxyprobe-1/PIMO) and CD31 microvessel density by immunohistochemistry in LLC allograft tumor
Type: in vivo, C57BL/6J mouse
Details: 2 mg/kg intraperitoneal on day 2, 4, 6, 8, 10; tumor extracted day 17; vs PBS control; FIG. 1
Description: As a control, the same amount of phosphate buffered saline (PBS) was injected. In addition, to measure a hypoxic state inside the tumor on day 17, 60 mg/kg of hypoxyprobe-1™ (pimonidazole hydrochloride; PIMO, HPI) was administered by intraperitoneal injection, and after 90 minutes, the mouse was sacrificed to extract the tumor. In addition, immunohistochemistry (HC) analyses were performed using the obtained tumor tissue. More particularly, the obtained tumor was fixed with 3.7% paraformaldehyde (PFA) and then dehydrated by treatment with a 10 to 40% sucrose solution step by step. In addition, after increasing the osmotic permeability of cells by treatment with 0.3% Triton X-100 and blocking with 5% bovine serum albumin (BSA), a rat anti-CD31 (BD Biosciences) or Alexa Fluor 647-conjugated anti-HIF-1 alpha antibody (Abcam) was treated and reacted at 4° C. for 16 hours. The mouse treated with the HIF-1 alpha antibody was a mouse which was not treated with hypoxyprobe-1™. […] In addition, finally, a cell nucleus was stained with DAPI (Sigma-Aldrich) and observed using a confocal microscope, followed by quantifying a fluorescent value using ImageJ. […]

For `COc1ccc([C@@H](O)[C@@H](C)Oc2ccc([C@H]3O[C@H](c4ccc(O[C@H](C)[C@H](O)c5ccc(OC)c(OC)c5)c(OC)c4)[C@H](C)[C@H]3C)cc2OC)cc1OC` [manassantin A], the “hypoxic state inside the tumor” value was “significantly reduced” and the “microvessel density (MVD) of CD31-positive vascular endothelial cells” value was “significantly reduced”.
